Experimental data published in article PMC7071059, “Targeting Receptor Tyrosine Kinase VEGFR-2 in Hepatocellular Cancer: Rational Design, Synthesis and Biological Evaluation of 1,2-Disubstituted Benzimidazoles” (Molecules, 2020).

Key:
HepG2 cell line = assay: In vitro cytotoxic activity, Sulfo-Rhodamine-B (SRB) assay; format: cell-based, human; details: Homo sapiens, HepG2, 48 h, SRB assay, 48 h; mean of three independent experiments; read-out: IC50 (μM) on HepG2 Cell Line
786-0 = assay: NCI 60 one dose (10 μM) anticancer assay; format: cell-based; details: Homo sapiens, 10 µM one dose, Renal Cancer, read-out: Growth Inhibition % 786-0
Protocol: (§1) Some of the synthesized compounds were selected by the NCI, Bethesda, MD, USA for evaluation of their anticancer activity. An in vitro one dose (10 μM) anticancer assay was conducted on a full NCI 60-cell line panel derived from 9 different cancer types. Table 2 presents the percent of growth inhibition of some cell lines. […] K-562 and MOLT-4 from leukemia, NCI-H522 from non-small cell lung cancer, HCT-116 from colon cancer, SK-MEL-5 and UACC-62 from melanoma, UO-31 from renal cancer, PC-3 from prostate cancer and HS 578T and T-47D from breast cancer are the most sensitive cell lines to the tested compounds. No growth inhibition was observed from the selected compounds against COLO205, HCC-2998, MALME-3M, SK-MEL-28, DU-145 and BT-549 cell lines. […] Against UO-31 from renal cancer and PC-3 from prostate cancer, it inhibited the growth of 44% and 58% of the cancer cells, respectively.

A549/ATTC = assay: NCI 60 one dose (10 μM) anticancer assay; format: cell-based; details: Homo sapiens, 10 µM one dose, Non-small cell lung Cancer, read-out: Growth Inhibition % A549/ATTC
Protocol: as §1

EKVX = assay: NCI 60 one dose (10 μM) anticancer assay; format: cell-based; details: Homo sapiens, 10 µM one dose, Non-small cell lung Cancer, read-out: Growth Inhibition % EKVX
Protocol: as §1

HCT-15 = assay: NCI 60 one dose (10 μM) anticancer assay; format: cell-based; details: Homo sapiens, 10 µM one dose, Colon Cancer, read-out: Growth Inhibition % HCT-15
Protocol: as §1

HL-60(TB) = assay: NCI 60 one dose (10 μM) anticancer assay; format: cell-based; details: Homo sapiens, 10 µM one dose, Leukemia, read-out: Growth Inhibition % HL-60(TB)
Protocol: as §1

HOP-62 = assay: NCI 60 one dose (10 μM) anticancer assay; format: cell-based; details: Homo sapiens, 10 µM one dose, Non-small cell lung Cancer, read-out: Growth Inhibition % HOP-62
Protocol: as §1

HS 578T = assay: NCI 60 one dose (10 μM) anticancer assay; format: cell-based; details: Homo sapiens, 10 µM one dose, Breast Cancer, read-out: Growth Inhibition % HS 578T
Protocol: as §1

K-562 = assay: NCI 60 one dose (10 μM) anticancer assay; format: cell-based; details: Homo sapiens, K562; 10 µM one dose; Leukemia; read-out: Growth Inhibition % K-562
Protocol: as §1

KM12 = assay: NCI 60 one dose (10 μM) anticancer assay; format: cell-based; details: Homo sapiens, 10 µM one dose, Colon Cancer, read-out: Growth Inhibition % KM12
Protocol: as §1

LOX IMVI = assay: NCI 60 one dose (10 μM) anticancer assay; format: cell-based; details: Homo sapiens, 10 µM one dose, Melanoma, read-out: Growth Inhibition % LOX IMVI
Protocol: as §1

MDA-MB-231/ATTC = assay: NCI 60 one dose (10 μM) anticancer assay; format: cell-based; details: Homo sapiens, 10 µM one dose, Breast Cancer, read-out: Growth Inhibition % MDA-MB-231/ATTC
Protocol: as §1

MDA-MB-435 = assay: NCI 60 one dose (10 μM) anticancer assay; format: cell-based; details: Homo sapiens, 10 µM one dose, Melanoma, read-out: Growth Inhibition % MDA-MB-435
Protocol: as §1

MDA-MB-468 = assay: NCI 60 one dose (10 μM) anticancer assay; format: cell-based; details: Homo sapiens, 10 µM one dose, Breast Cancer, read-out: Growth Inhibition % MDA-MB-468
Protocol: as §1

NCI-H226 = assay: NCI 60 one dose (10 μM) anticancer assay; format: cell-based; details: Homo sapiens, 10 µM one dose, Non-small cell lung Cancer, read-out: Growth Inhibition % NCI-H226
Protocol: as §1

NCI-H23 = assay: NCI 60 one dose (10 μM) anticancer assay; format: cell-based; details: Homo sapiens, 10 µM one dose, Non-small cell lung Cancer, read-out: Growth Inhibition % NCI-H23
Protocol: as §1

NCI-H522 = assay: NCI 60 one dose (10 μM) anticancer assay; format: cell-based; details: Homo sapiens, 10 µM one dose, Non-small cell lung Cancer, read-out: Growth Inhibition % NCI-H522
Protocol: as §1

NCI/ADR-RES = assay: NCI 60 one dose (10 μM) anticancer assay; format: cell-based; details: Homo sapiens, 10 µM one dose, Ovarian Cancer, read-out: Growth Inhibition % NCI/ADR-RES
Protocol: as §1

OVCAR-4 = assay: NCI 60 one dose (10 μM) anticancer assay; format: cell-based; details: Homo sapiens, 10 µM one dose, Ovarian Cancer, read-out: Growth Inhibition % OVCAR-4
Protocol: as §1

OVCAR-8 = assay: NCI 60 one dose (10 μM) anticancer assay; format: cell-based; details: Homo sapiens, 10 µM one dose, Ovarian Cancer, read-out: Growth Inhibition % OVCAR-8
Protocol: as §1

PC-3 = assay: NCI 60 one dose (10 μM) anticancer assay; format: cell-based; details: Homo sapiens, 10 µM one dose, Prostate Cancer, read-out: Growth Inhibition % PC-3
Protocol: as §1

SF-268 = assay: NCI 60 one dose (10 μM) anticancer assay; format: cell-based; details: Homo sapiens, 10 µM one dose, CNS Cancer, read-out: Growth Inhibition % SF-268
Protocol: as §1

SNB-19 = assay: NCI 60 one dose (10 μM) anticancer assay; format: cell-based; details: Homo sapiens, 10 µM one dose, CNS Cancer, read-out: Growth Inhibition % SNB-19
Protocol: as §1

SNB-75 = assay: NCI 60 one dose (10 μM) anticancer assay; format: cell-based; details: Homo sapiens, 10 µM one dose, CNS Cancer, read-out: Growth Inhibition % SNB-75
Protocol: as §1

SW-620 = assay: NCI 60 one dose (10 μM) anticancer assay; format: cell-based; details: Homo sapiens, 10 µM one dose, Colon Cancer, read-out: Growth Inhibition % SW-620
Protocol: as §1

TK-10 = assay: NCI 60 one dose (10 μM) anticancer assay; format: cell-based; details: Homo sapiens, 10 µM one dose, Renal Cancer, read-out: Growth Inhibition % TK-10
Protocol: as §1

U251 = assay: NCI 60 one dose (10 μM) anticancer assay; format: cell-based; details: Homo sapiens, U-251; 10 µM one dose; CNS Cancer; read-out: Growth Inhibition % U251
Protocol: as §1

UO-31 = assay: NCI 60 one dose (10 μM) anticancer assay; format: cell-based; details: Homo sapiens, 10 µM one dose, Renal Cancer, read-out: Growth Inhibition % UO-31
Protocol: as §1

SR = assay: NCI 60 one dose (10 μM) anticancer assay; format: cell-based; details: Homo sapiens, 10 µM one dose, Leukemia, read-out: Growth Inhibition % SR
Protocol: as §1

Compound	IC50 (HepG2 cell line) [µM]	inhibition at 10 µM (786-0) [%]	inhibition at 10 µM (A549/ATTC) [%]	inhibition at 10 µM (EKVX) [%]	inhibition at 10 µM (HCT-15) [%]	inhibition at 10 µM (HL-60(TB)) [%]	inhibition at 10 µM (HOP-62) [%]	inhibition at 10 µM (HS 578T) [%]	inhibition at 10 µM (K-562) [%]	inhibition at 10 µM (KM12) [%]	inhibition at 10 µM (LOX IMVI) [%]	inhibition at 10 µM (MDA-MB-231/ATTC) [%]	inhibition at 10 µM (MDA-MB-435) [%]	inhibition at 10 µM (MDA-MB-468) [%]	inhibition at 10 µM (NCI-H226) [%]	inhibition at 10 µM (NCI-H23) [%]	inhibition at 10 µM (NCI-H522) [%]	inhibition at 10 µM (NCI/ADR-RES) [%]	inhibition at 10 µM (OVCAR-4) [%]	inhibition at 10 µM (OVCAR-8) [%]	also measured
C/C(=N\NC(=O)Cn1c(C(C)C)nc2ccccc21)c1ccccc1 [Compound 14a, (E)-2-(2-Isopropyl-1H-benzo[d]imidazol-1-yl)-N′-(1-phenylethylidene)acetohydrazide]	25.9	< 10	< 10	< 10	< 10	< 10	< 10	24	< 10	< 10	< 10	< 10	< 10	29	22	< 10	< 10	< 10	< 10	< 10	inhibition at 10 µM (PC-3): < 10%; inhibition at 10 µM (SF-268): < 10%; inhibition at 10 µM (SNB-19): < 10%; inhibition at 10 µM (SNB-75): 18%; inhibition at 10 µM (SW-620): 18%; inhibition at 10 µM (TK-10): < 10%; inhibition at 10 µM (U251): < 10%; inhibition at 10 µM (UO-31): < 10%; melting point: 176 to 178 °C
CC(C)c1nc2ccccc2n1CC(=O)N/N=C/c1cccc(OCc2ccccc2)c1 [Compound 17a, (E)-N′-(3-(Benzyloxy)benzylidene)-2-(2-isopropyl-1H-benzo[d]imidazol-1-yl)acetohydrazide]	1.98	24	16	21	< 10	32	< 10	20	57	< 10	< 10	25	< 10	47	29	39	33	< 10	< 10	< 10	inhibition at 10 µM (PC-3): 58%; inhibition at 10 µM (SF-268): < 10%; inhibition at 10 µM (SNB-19): 22%; inhibition at 10 µM (SNB-75): 15%; inhibition at 10 µM (SR): 64%; inhibition at 10 µM (SW-620): < 10%; inhibition at 10 µM (TK-10): < 10%; inhibition at 10 µM (U251): < 10%; inhibition at 10 µM (UO-31): 44%
